Source: ChEMBL document CHEMBL5550215, “Discovery of Novel Imidazo[1,2-a]pyridine-Based HDAC6 Inhibitors as an Anticarcinogen with a Cardioprotective Effect” (J Med Chem, 2024)
Activity calls are given as the source filed them. The rule behind the calls is not given here.

Experiments:
[1] = Tmax in male Sprague-Dawley rat at 7 mg/kg,po measured upto 8 hrs by UPLC-MS/MS analysis; assay type: ADME, organism-based; conditions: in vivo
AGS = assay: Antiproliferative activity against human AGS cells assessed as inhibition of cell growth by MTT assay
[2] = Cmax in male Sprague-Dawley rat at 7 mg/kg,po measured upto 8 hrs by UPLC-MS/MS analysis; assay type: ADME, organism-based; conditions: in vivo
H9c2 [3] = assay: Cardioprotective activity in H2O2 induced myocardial injury in rat H9c2 cells assessed as effect on LC3 level at upto 8 uM by q-PCR analysis; assay type: functional, cell-based
H9c2 [4] = assay: Cardioprotective activity in H2O2 induced myocardial injury in rat H9c2 cells assessed as effect on SOD level at upto 8 uM by q-PCR analysis; assay type: functional, cell-based
[5] = AUClast in male Sprague-Dawley rat at 7 mg/kg,po measured upto 8 hrs by UPLC-MS/MS analysis; assay type: ADME, organism-based; conditions: in vivo
[6] = Toxicity in C57BL/6 mouse assessed as cell necrosis at 25 to 50 mg/kg, ip by H and E staining based analysis; assay type: organism-based; conditions: in vivo, dose 25-50 mg/kg
MGC-803 [7] = assay: Induction of apoptosis in human MGC-803 cells measured after 48 hrs by Annexin V-EGFP and PI staining based flow cytometry analysis; assay type: functional, cell-based; conditions: dose <= 2.0 µM
[8] = Toxicity in C57BL/6 mouse assessed as effect on body weight at 25 to 50 mg/kg, ip measured after 21 days; assay type: organism-based; conditions: in vivo, 504 h, dose 25-50 mg/kg, time 21 day
MKN-45 = assay: Antiproliferative activity against human MKN-45 cells assessed as inhibition of cell growth by MTT assay
[9] = target: T1, Protein deacetylase HDAC6 (Mus musculus) (UniProt Q9Z2V5); assay: In vivo inhibition of HDAC6 in C57BL/6 mouse xenografted with MGC-803 cells assessed as effect on acetylated H3 level at 25 to 50 mg/kg, ip by Western blot analysis; assay type: functional, organism-based; conditions: dose 25-50 mg/kg
T1 sequence (whole entry): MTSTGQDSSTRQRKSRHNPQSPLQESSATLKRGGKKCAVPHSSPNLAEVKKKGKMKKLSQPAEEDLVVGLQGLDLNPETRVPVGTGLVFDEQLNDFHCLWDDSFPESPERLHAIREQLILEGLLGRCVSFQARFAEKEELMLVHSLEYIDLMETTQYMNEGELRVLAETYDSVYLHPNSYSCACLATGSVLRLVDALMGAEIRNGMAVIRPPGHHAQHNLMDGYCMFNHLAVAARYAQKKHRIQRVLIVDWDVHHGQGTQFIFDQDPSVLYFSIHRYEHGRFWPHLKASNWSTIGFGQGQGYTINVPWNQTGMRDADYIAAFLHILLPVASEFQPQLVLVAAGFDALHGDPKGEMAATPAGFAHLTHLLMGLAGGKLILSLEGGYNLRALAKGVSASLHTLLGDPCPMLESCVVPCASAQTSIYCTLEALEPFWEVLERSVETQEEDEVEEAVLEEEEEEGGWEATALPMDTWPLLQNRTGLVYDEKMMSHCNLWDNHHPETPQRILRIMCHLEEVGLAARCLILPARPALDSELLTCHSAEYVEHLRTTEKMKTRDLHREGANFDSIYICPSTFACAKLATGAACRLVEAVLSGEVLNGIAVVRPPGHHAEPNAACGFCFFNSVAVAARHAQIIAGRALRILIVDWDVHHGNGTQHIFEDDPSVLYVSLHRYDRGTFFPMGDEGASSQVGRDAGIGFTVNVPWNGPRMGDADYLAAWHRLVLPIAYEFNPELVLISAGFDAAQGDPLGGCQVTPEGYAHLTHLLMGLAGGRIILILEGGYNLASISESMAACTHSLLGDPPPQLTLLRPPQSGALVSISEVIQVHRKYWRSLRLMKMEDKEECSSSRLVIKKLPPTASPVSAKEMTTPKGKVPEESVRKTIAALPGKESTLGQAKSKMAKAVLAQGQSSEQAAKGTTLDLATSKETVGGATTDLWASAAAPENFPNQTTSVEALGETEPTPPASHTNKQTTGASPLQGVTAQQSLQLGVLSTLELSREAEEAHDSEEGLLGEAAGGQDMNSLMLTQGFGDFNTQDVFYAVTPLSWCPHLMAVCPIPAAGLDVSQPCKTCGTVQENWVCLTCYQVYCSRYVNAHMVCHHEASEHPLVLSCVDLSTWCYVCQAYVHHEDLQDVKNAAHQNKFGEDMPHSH

H9c2 [10] = assay: Cardioprotective activity against H2O2 induced myocardial damage in rat H9c2 cells harbouring Ad.GFP assessed as decrease in LDH leakage rate at 8 uM by absorbance based analysis; assay type: functional, cell-based
[11] = target: T1, Protein deacetylase HDAC6 (Mus musculus); assay: In vivo inhibition of HDAC6 in C57BL/6 mouse xenografted with MGC-803 cells assessed as effect on acetylated tubulin level at 25 to 50 mg/kg, ip by Western blot analysis; assay type: functional, organism-based; conditions: dose 25-50 mg/kg
BGC-823 = assay: Antiproliferative activity against human BGC-823 cells assessed as inhibition of cell growth by MTT assay
Mus musculus [12] = assay: Cardioprotective activity against myocardial ischemia/reperfusion induced C57BL/6J mouse model assessed as alleviation of severe edema at 10 mg/kg by H and E staining based analysis; assay type: functional, organism-based
[13] = AUC (0 to infinity) in male Sprague-Dawley rat at 7 mg/kg,iv measured upto 8 hrs by UPLC-MS/MS analysis; assay type: ADME, organism-based; conditions: in vivo
MGC-803 [14] = assay: Induction of apoptosis in human MGC-803 cells assessed as increase in bax expression by Western blot analysis; assay type: functional, cell-based; conditions: dose <= 2.0 µM
H9c2 [15] = assay: Cardioprotective activity in H2O2 induced myocardial injury in rat H9c2 cells assessed as downregulation of IL-1 beta expression; assay type: functional, cell-based; conditions: dose <= 8.0 µM
[16] = Half life in male Sprague-Dawley rat at 7 mg/kg,iv measured upto 8 hrs by UPLC-MS/MS analysis; assay type: ADME, organism-based; conditions: in vivo
H9c2 [17] = assay: Cardioprotective activity in H2O2 induced myocardial injury in rat H9c2 cells assessed as effect on HO-1 level at upto 8 uM by q-PCR analysis; assay type: functional, cell-based
MGC-803 [18] = assay: Induction of apoptosis in human MGC-803 cells assessed as early apoptotic cells at 2 uM measured after 48 hrs by Annexin V-EGFP and PI staining based flow cytometry analysis (reference value: 0.66%); assay type: functional
Mus musculus [19] = assay: Cardioprotective activity against myocardial ischemia/reperfusion induced C57BL/6J mouse model assessed as reduction in myocardial infarction area at 2.5 mg/kg (reference value: 72.19%); assay type: functional; parameters: scale not given: the % may be the effect or the level left
HCT-116 = assay: Antiproliferative activity against human HCT-116 cells assessed as inhibition of cell growth by MTT assay
H9c2 [20] = assay: Cardioprotective activity against H2O2 induced myocardial damage in rat H9c2 cells harbouring Ad.HDAC6 assessed as reversal of IL-18 expression at 8 uM; assay type: functional, cell-based
MGC-803 [21] = assay: Induction of apoptosis in human MGC-803 cells assessed as viable cells at 0.5 uM measured after 48 hrs by Annexin V-EGFP and PI staining based flow cytometry analysis (reference value: 92.3%); assay type: functional; conditions: read-out: Activity
H9c2 [22] = assay: Cardioprotective activity in H2O2 induced myocardial injury in rat H9c2 cells assessed as effect on P62 level at upto 8 uM by q-PCR analysis; assay type: functional, cell-based

O=C(NO)c1ccc(CNC(=O)c2cc(-c3ccc(F)cc3)cn3ccnc23)cc1
Tmax [1]: 1 h | IC50 (AGS): > 10 µM | Cmax [2]: 27.5 ng/mL | Activity (H9c2 [3]): inactive | Activity (H9c2 [4]): inactive | AUC(0-t) at 8 h [5]: 54.2 ng·h/mL | Activity [6]: Non-Toxic | Activity (MGC-803 [7]): Dose-Dependent Effect | Activity [8]: Non-Toxic | IC50 (MKN-45): 7.43 µM | inhibition [9]: Active | Activity (H9c2 [10]): Active | inhibition [11]: Active | IC50 (BGC-823): 2.25 µM | Activity (Mus musculus [12]): Active | AUC(0-inf) [13]: 868 ng·h/mL | Activity (MGC-803 [14]): Dose-Dependent Effect | Activity (H9c2 [15]): Dose-Dependent Effect | half-life [16]: 2.19 h | Activity (H9c2 [17]): inactive | Activity (MGC-803 [18]): 0.7% | Activity (Mus musculus [19]): 59.66% | IC50 (HCT-116): > 10 µM | Activity (H9c2 [20]): Active | viability at 0.5 µM (MGC-803 [21]): 70.5% | Activity (H9c2 [22]): inactive
